Among the data in US10039753B2, “Imidazo[4,5-c]quinoline and imidazo[4,5-c][1,5]naphthyridine derivatives as LRRK2 inhibitors” (Pfizer Inc., priority 2015, dated 2018) are IC50 values, retold here.

pIC50: −log10 of the molar value. Where a name gives a salt, the structure may show the parent alone.

For experiment [1], the target named is T1, GST-tagged truncated LRRK2 (Homo sapiens, UniProt Q5S007).
T1 construct: GST-tagged truncated LRRK2 from Invitrogen (Cat # PV4874); GST; purchased Invitrogen PV4874
T1 sequence (Q5S007 970-2527 limits assumed): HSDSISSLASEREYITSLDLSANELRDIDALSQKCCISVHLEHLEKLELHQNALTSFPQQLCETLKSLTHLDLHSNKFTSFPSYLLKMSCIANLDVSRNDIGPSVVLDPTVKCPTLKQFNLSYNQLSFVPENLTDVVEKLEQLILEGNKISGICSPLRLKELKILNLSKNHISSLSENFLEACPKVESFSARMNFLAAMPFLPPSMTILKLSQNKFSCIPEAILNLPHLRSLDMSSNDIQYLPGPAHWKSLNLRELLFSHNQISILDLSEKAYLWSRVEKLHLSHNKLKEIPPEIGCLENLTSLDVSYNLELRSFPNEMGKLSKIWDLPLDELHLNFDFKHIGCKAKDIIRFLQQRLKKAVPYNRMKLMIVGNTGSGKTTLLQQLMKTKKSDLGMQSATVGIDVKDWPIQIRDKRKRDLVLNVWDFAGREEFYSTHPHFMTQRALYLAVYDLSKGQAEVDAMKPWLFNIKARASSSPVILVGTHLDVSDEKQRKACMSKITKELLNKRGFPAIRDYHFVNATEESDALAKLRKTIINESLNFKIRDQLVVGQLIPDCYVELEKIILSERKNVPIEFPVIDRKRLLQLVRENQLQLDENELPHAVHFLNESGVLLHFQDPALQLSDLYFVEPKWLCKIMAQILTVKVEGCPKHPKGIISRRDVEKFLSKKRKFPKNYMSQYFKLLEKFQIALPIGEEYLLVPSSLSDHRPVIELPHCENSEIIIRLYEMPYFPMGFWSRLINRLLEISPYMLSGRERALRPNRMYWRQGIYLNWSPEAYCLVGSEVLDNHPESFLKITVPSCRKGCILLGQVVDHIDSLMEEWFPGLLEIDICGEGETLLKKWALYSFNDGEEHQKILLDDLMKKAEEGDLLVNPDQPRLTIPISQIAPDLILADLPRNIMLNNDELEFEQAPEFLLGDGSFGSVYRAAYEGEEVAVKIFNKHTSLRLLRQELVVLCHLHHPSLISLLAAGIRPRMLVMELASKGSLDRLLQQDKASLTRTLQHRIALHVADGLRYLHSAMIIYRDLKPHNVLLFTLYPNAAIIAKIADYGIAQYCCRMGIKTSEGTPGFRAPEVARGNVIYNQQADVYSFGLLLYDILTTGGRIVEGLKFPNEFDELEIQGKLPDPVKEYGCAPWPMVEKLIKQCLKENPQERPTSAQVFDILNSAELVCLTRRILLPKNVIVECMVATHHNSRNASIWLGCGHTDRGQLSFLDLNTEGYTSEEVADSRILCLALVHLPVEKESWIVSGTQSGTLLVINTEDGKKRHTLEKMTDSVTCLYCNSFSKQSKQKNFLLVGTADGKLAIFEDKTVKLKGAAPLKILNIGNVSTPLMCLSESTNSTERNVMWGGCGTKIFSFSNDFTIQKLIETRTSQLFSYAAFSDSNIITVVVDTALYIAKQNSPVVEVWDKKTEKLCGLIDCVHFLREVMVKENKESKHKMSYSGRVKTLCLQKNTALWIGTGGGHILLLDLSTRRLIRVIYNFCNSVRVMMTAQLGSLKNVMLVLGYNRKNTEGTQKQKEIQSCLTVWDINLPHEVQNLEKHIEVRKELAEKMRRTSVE
Description: LRRK2 Assay, Format 2 (Lantha Screen), WT. As to conditions: geometric mean of 2-4 determinations unless otherwise indicated (a: >=5; b: single determination). The format is biochemical.

The next experiment deals with mutant G2019S LRRK2 (Homo sapiens, UniProt Q5S007, G2019S). The experiment can be described thus: LRRK2 Assay, Format 2 (Lantha Screen), G2019S mutant. The experiment is classed as biochemical. Set-up: purchased Invitrogen PV4881. The note with it: geometric mean of 2-4 determinations unless otherwise indicated (a: >=5; b: single determination); read-out: LRRK2, Format 2 G2019S IC50.
mutant G2019S LRRK2, sequence (Q5S007 970-2527 G2019S limits assumed): as the sequence (Q5S007 970-2527 limits assumed) above, with G1050S counted along it

The pIC50 is −log10 of the IC50, conventionally taken in molar units. For the compound `CC1(C)CC(n2c(Cn3cnnn3)nc3cnc4ccc(Cl)cc4c32)CCO1` (centres unmarked) [Example 150, 8-chloro-1-(2,2-dimethyltetrahydro-2H-pyran-4-yl)-2-(1H-tetrazol-1-ylmethyl)-1H-imidazo[4,5-c]quinoline, formate salt], the negative-log IC50 (pIC50) in experiment [1] was 7.94; at mutant G2019S LRRK2, 7.92.
As for `Cc1cc(Cc2nc3cnc4ccc(C#N)cc4c3n2C2CCCCC2(F)F)no1` (centres unmarked) [Example 151, 1-(2,2-difluorocyclohexyl)-2-[(5-methyl-1,2-oxazol-3-yl)methyl]-1H-imidazo[4,5-c]quinoline-8-carbonitrile, formate salt], the pIC50 in experiment [1] was 7.78; on mutant G2019S LRRK2, 7.59.
In the same order, the values of `Cc1cc(Cc2nc3cnc4ccc(C#N)cc4c3n2C2CCCC2)no1` [Example 152, 1-cyclopentyl-2-[(5-methyl-1,2-oxazol-3-yl)methyl]-1H-imidazo[4,5-c]quinoline-8-carbonitrile, formate salt] are 7.60 and 7.39.
Regarding `C[C@@H]1C[C@H](n2c(Cc3nc4ccccc4o3)nc3cnc4ccc(C#N)cc4c32)CCO1` [Example 153, 2-(1,3-benzoxazol-2-ylmethyl)-1-[(2R,4R)-2-methyltetrahydro-2H-pyran-4-yl]-1H-imidazo[4,5-c]quinoline-8-carbonitrile, formate salt], the pIC50 was 8.22 in experiment [1] and 8.27 on mutant G2019S LRRK2.
Take `C[C@@H]1C[C@H](n2c(Cc3noc4ccccc34)nc3cnc4ccc(C#N)cc4c32)CCO1` [Example 154, 2-(1,2-benzoxazol-3-ylmethyl)-1-[(2R,4R)-2-methyltetrahydro-2H-pyran-4-yl]-1H-imidazo[4,5-c]quinoline-8-carbonitrile, formate salt]: the results for the negative logarithm of the IC50 (pIC50) (in experiment [1]; on mutant G2019S LRRK2) were 8.40 and 8.43, respectively.
Taken in the same sequence, the figures for `Cc1nc(Cc2nc3cnc4ccc(C#N)cc4c3n2[C@@H]2CCO[C@H](C)C2)c(C2CC2)o1` [Example 155, 2-[(5-cyclopropyl-2-methyl-1,3-oxazol-4-yl)methyl]-1-[(2R,4R)-2-methyltetrahydro-2H-pyran-4-yl]-1H-imidazo[4,5-c]quinoline-8-carbonitrile, formate salt] were 7.93 and 8.05.
With `CCc1nn2cc(Cc3nc4cnc5ccc(C#N)cc5c4n3[C@@H]3CCO[C@H](C)C3)nc2s1` [Example 156, 2-[(2-ethylimidazo[2,1-b][1,3,4]thiadiazol-6-yl)methyl]-1-[(2R,4R)-2-methyltetrahydro-2H-pyran-4-yl]-1H-imidazo[4,5-c]quinoline-8-carbonitrile, formate salt], the negative logarithm of the IC50 (pIC50) is 8.32 in experiment [1] and 8.37 at mutant G2019S LRRK2.
As for `Cc1nn2cc(Cc3nc4cnc5ccc(C#N)cc5c4n3[C@@H]3CCO[C@H](C)C3)nc2s1` [Example 157, 2-[(2-methylimidazo[2,1-b][1,3,4]thiadiazol-6-yl)methyl]-1-[(2R,4R)-2-methyltetrahydro-2H-pyran-4-yl]-1H-imidazo[4,5-c]quinoline-8-carbonitrile, formate salt], the negative-log IC50 (pIC50) in experiment [1] was 8.40; at mutant G2019S LRRK2, 8.42.
On to `C[C@@H]1C[C@H](n2c(Cc3cn4ccccc4n3)nc3cnc4ccc(C#N)cc4c32)CCO1` [Example 158, 2-(imidazo[1,2-a]pyridin-2-ylmethyl)-1-[(2R,4R)-2-methyltetrahydro-2H-pyran-4-yl]-1H-imidazo[4,5-c]quinoline-8-carbonitrile, formate salt], for which the negative-log IC50 (pIC50) in experiment [1] is 8.22; at mutant G2019S LRRK2 it was 8.28.
Take `Cc1ccn2cc(Cc3nc4cnc5ccc(Cl)cc5c4n3[C@@H]3CCO[C@H](C)C3)nc2n1` [Example 159, 8-chloro-2-[(7-methylimidazo[1,2-a]pyrimidin-2-yl)methyl]-1-[(2R,4R)-2-methyltetrahydro-2H-pyran-4-yl]-1H-imidazo[4,5-c]quinoline]: the pIC50 in experiment [1] was 8.22; on mutant G2019S LRRK2 it was 8.21.
Turning to `C[C@@H]1C[C@H](n2c(Cn3ccc(C4CC4)n3)nc3cnc4ccc(Cl)cc4c32)CCO1` [Example 160, 8-chloro-2-[(3-cyclopropyl-1H-pyrazol-1-yl)methyl]-1-[(2R,4R)-2-methyltetrahydro-2H-pyran-4-yl]-1H-imidazo[4,5-c]quinoline, formate salt], the results for the negative logarithm of the IC50 (pIC50) (in experiment [1]; at mutant G2019S LRRK2) were 8.21 and 8.20, respectively.
Regarding `C[C@@H]1C[C@H](n2c(Cn3nccn3)nc3cnc4ccc(Cl)cc4c32)CCO1` [Example 161, 8-chloro-1-[(2R,4R)-2-methyltetrahydro-2H-pyran-4-yl]-2-(2H-1,2,3-triazol-2-ylmethyl)-1H-imidazo[4,5-c]quinoline, formate salt], the values for the pIC50 (in experiment [1]; on mutant G2019S LRRK2) were 8.19 and 8.16, respectively.
In the same order, the values of `Cc1nn2cc(Cc3nc4cnc5ccc(Cl)cc5c4n3[C@@H]3CCO[C@H](C)C3)nc2s1` [Example 162, 8-chloro-2-[(2-methylimidazo[2,1-b][1,3,4]thiadiazol-6-yl)methyl]-1-[(2R,4R)-2-methyltetrahydro-2H-pyran-4-yl]-1H-imidazo[4,5-c]quinoline, formate salt] are 8.41 and 8.42.
Regarding `C[C@@H]1C[C@H](n2c(Cc3ccn(C)n3)nc3cnc4ccc(Cl)cc4c32)CCO1` [Example 163, 8-chloro-2-[(1-methyl-1H-pyrazol-3-yl)methyl]-1-[(2R,4R)-2-methyltetrahydro-2H-pyran-4-yl]-1H-imidazo[4,5-c]quinoline], the negative logarithm of the IC50 (pIC50) in experiment [1] was 8.15; on mutant G2019S LRRK2, 8.14.
Taken in the same sequence, the figures for `C[C@@H]1C[C@H](n2c(Cc3cc(=O)n4ccccc4n3)nc3cnc4ccc(Cl)cc4c32)CCO1` [Example 164, 2-({8-chloro-1-[(2R,4R)-2-methyltetrahydro-2H-pyran-4-yl]-1H-imidazo[4,5-c]quinolin-2-yl}methyl)-4H-pyrido[1,2-a]pyrimidin-4-one, formate salt] were 8.23 and 8.21.
In the same order, the values of `C[C@@H]1C[C@H](n2c(Cc3ccc4nnnn4n3)nc3cnc4ccc(Cl)cc4c32)CCO1` [Example 165, 8-chloro-1-[(2R,4R)-2-methyltetrahydro-2H-pyran-4-yl]-2-(tetrazolo[1,5-b]pyridazin-6-ylmethyl)-1H-imidazo[4,5-c]quinoline] are 8.17 and 8.13.
In the same order, the values of `C[C@@H]1C[C@H](n2c(Cc3cc4n(n3)CCC4)nc3cnc4ccc(Cl)cc4c32)CCO1` [Example 166, 8-chloro-2-(5,6-dihydro-4H-pyrrolo[1,2-b]pyrazol-2-ylmethyl)-1-[(2R,4R)-2-methyltetrahydro-2H-pyran-4-yl]-1H-imidazo[4,5-c]quinoline, trifluoroacetate salt] are 8.13 and 8.13.
For the compound `C[C@@H]1C[C@H](n2c(Cc3cn4ccccc4n3)nc3cnc4ccc(Cl)cc4c32)CCO1` [Example 167, 8-chloro-2-(imidazo[1,2-a]pyridin-2-ylmethyl)-1-[(2R,4R)-2-methyltetrahydro-2H-pyran-4-yl]-1H-imidazo[4,5-c]quinoline, trifluoroacetate salt], the results for the negative logarithm of the IC50 (pIC50) (in experiment [1]; at mutant G2019S LRRK2) were 8.08 and 8.07, respectively.
Taken in the same sequence, the figures for `C[C@@H]1C[C@H](n2c(C(=O)c3ccon3)nc3cnc4ccc(Cl)cc4c32)CCO1` [Example 174, {8-chloro-1-[(2R,4R)-2-methyltetrahydro-2H-pyran-4-yl]-1H-imidazo[4,5-c]quinolin-2-yl}(1,2-oxazol-3-yl)methanone] were 7.77 and 7.71.
